Measured values as given in PubChem BioAssay (NCI).
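Tested at 5 concentrations; 48 h exposure; 96-well plates; endpoints linearly interpolated, else capped at highest concentration. Here, GI50 denotes the concentration required for 50% inhibition of growth. The concentration for full growth arrest is given as TGI.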

Experiments:
Test in all cases: NCI-60 cell line screen, 48 h
BT-549 breast = tested on: BT-549 breast
IGROV1 ovarian = tested on: IGROV1 ovarian
HCT-116 colon = tested on: HCT-116 colon
U251 CNS = tested on: U251 CNS
SNB-75 CNS = tested on: SNB-75 CNS
786-0 renal = tested on: 786-0 renal
TK-10 renal = tested on: TK-10 renal
MDA-MB-231 breast = tested on: MDA-MB-231 breast
HOP-62 NSCLC = tested on: HOP-62 NSCLC
UO-31 renal = tested on: UO-31 renal
LOX IMVI melanoma = tested on: LOX IMVI melanoma
SR leukemia = tested on: SR leukemia
NCI/ADR-RES ovarian = tested on: NCI/ADR-RES ovarian
HT29 colon = tested on: HT29 colon
SK-MEL-2 melanoma = tested on: SK-MEL-2 melanoma
OVCAR-8 ovarian = tested on: OVCAR-8 ovarian
K-562 leukemia = tested on: K-562 leukemia
SF-295 CNS = tested on: SF-295 CNS
T-47D breast = tested on: T-47D breast
MCF7 breast = tested on: MCF7 breast
SNB-19 CNS = tested on: SNB-19 CNS
COLO 205 colon = tested on: COLO 205 colon
OVCAR-4 ovarian = tested on: OVCAR-4 ovarian
SK-OV-3 ovarian = tested on: SK-OV-3 ovarian
PC-3 prostate = tested on: PC-3 prostate
ACHN renal = tested on: ACHN renal
HS 578T breast = tested on: HS 578T breast
HCT-15 colon = tested on: HCT-15 colon
NCI-H226 lung = tested on: NCI-H226 lung
A498 renal = tested on: A498 renal
HOP-92 NSCLC = tested on: HOP-92 NSCLC
SF-268 CNS = tested on: SF-268 CNS
NCI-H23 lung = tested on: NCI-H23 lung
DU-145 prostate = tested on: DU-145 prostate
CAKI-1 renal = tested on: CAKI-1 renal
NCI-H460 lung = tested on: NCI-H460 lung
SF-539 CNS = tested on: SF-539 CNS
RXF 393 renal = tested on: RXF 393 renal
SW-620 colon = tested on: SW-620 colon
OVCAR-3 ovarian = tested on: OVCAR-3 ovarian
OVCAR-5 ovarian = tested on: OVCAR-5 ovarian
HCC-2998 colon = tested on: HCC-2998 colon

With `Brc1cccc(/C=N/Nc2nc(N/N=C/c3cccc(Br)c3)nc(N3CCOCC3)n2)c1` the GI50 (BT-549 breast) was 3.54 µM, the TGI (BT-549 breast) was 66.9 µM and the GI50 (IGROV1 ovarian) was 2920 nM. It also gave a TGI (IGROV1 ovarian) greater than 100 µM, a GI50 (HCT-116 colon) of 780 nM and a TGI (HCT-116 colon) greater than 100 µM. It also gave a GI50 (U251 CNS) of 4.22 µM, a TGI (U251 CNS) greater than 100 µM and a GI50 (SNB-75 CNS) of 4.54 µM. The TGI (SNB-75 CNS) was 29.6 µM, the GI50 (786-0 renal) was 529 nM and the TGI (786-0 renal) was 4.78 µM. For the same compound, the GI50 (TK-10 renal) was 8.75 µM, the TGI (TK-10 renal) was greater than 100 µM and the GI50 (MDA-MB-231 breast) was 3.97 µM. The TGI (MDA-MB-231 breast) was greater than 100 µM, the GI50 (HOP-62 NSCLC) was 8.07 µM and the TGI (HOP-62 NSCLC) was 55.6 µM. It also gave a GI50 (UO-31 renal) of 1010 nM, a TGI (UO-31 renal) greater than 100 µM and a GI50 (LOX IMVI melanoma) of 2660 nM. For the same compound, the TGI (LOX IMVI melanoma) was greater than 100 µM, the GI50 (SR leukemia) was 160 nM and the TGI (SR leukemia) was 2290 nM. For the same compound, the GI50 (NCI/ADR-RES ovarian) was 3.25 µM, the TGI (NCI/ADR-RES ovarian) was greater than 100 µM and the GI50 (HT29 colon) was 609 nM. The TGI (HT29 colon) was greater than 100 µM, the GI50 (SK-MEL-2 melanoma) was 2430 nM and the TGI (SK-MEL-2 melanoma) was 6.47 µM. The GI50 (OVCAR-8 ovarian) was 5 µM, the TGI (OVCAR-8 ovarian) was greater than 100 µM and the GI50 (K-562 leukemia) was 336 nM. The TGI (K-562 leukemia) was greater than 100 µM, the GI50 (SF-295 CNS) was 4.94 µM and the TGI (SF-295 CNS) was greater than 100 µM. It also gave a GI50 (T-47D breast) of 3.94 µM, a TGI (T-47D breast) greater than 100 µM and a GI50 (MCF7 breast) of 2640 nM. The TGI (MCF7 breast) was greater than 100 µM, the GI50 (SNB-19 CNS) was 12.9 µM and the TGI (SNB-19 CNS) was 58.7 µM. For the same compound, the GI50 (COLO 205 colon) was 1240 nM, the TGI (COLO 205 colon) was greater than 100 µM and the GI50 (OVCAR-4 ovarian) was 4.89 µM. The TGI (OVCAR-4 ovarian) was greater than 100 µM, the GI50 (SK-OV-3 ovarian) was 14.7 µM and the TGI (SK-OV-3 ovarian) was 64 µM. The GI50 (PC-3 prostate) was 2900 nM, the TGI (PC-3 prostate) was greater than 100 µM and the GI50 (ACHN renal) was 2210 nM. It also gave a TGI (ACHN renal) greater than 100 µM, a GI50 (HS 578T breast) of 3.6 µM and a TGI (HS 578T breast) greater than 100 µM. For the same compound, the GI50 (HCT-15 colon) was 423 nM, the TGI (HCT-15 colon) was greater than 100 µM and the GI50 (NCI-H226 lung) was 2460 nM. The TGI (NCI-H226 lung) was 8.51 µM, the GI50 (A498 renal) was 137 nM and the TGI (A498 renal) was 4.26 µM. The GI50 (HOP-92 NSCLC) was 1240 nM, the TGI (HOP-92 NSCLC) was 8.92 µM and the GI50 (SF-268 CNS) was 8.4 µM. It also gave a TGI (SF-268 CNS) greater than 100 µM, a GI50 (NCI-H23 lung) of 4.5 µM and a TGI (NCI-H23 lung) greater than 100 µM. The GI50 (DU-145 prostate) was 1310 nM, the TGI (DU-145 prostate) was greater than 100 µM and the GI50 (CAKI-1 renal) was 3.52 µM. The TGI (CAKI-1 renal) was greater than 100 µM, the GI50 (NCI-H460 lung) was 3.43 µM and the TGI (NCI-H460 lung) was greater than 100 µM. It also gave a GI50 (SF-539 CNS) of 3.83 µM, a TGI (SF-539 CNS) greater than 100 µM and a GI50 (RXF 393 renal) of 159 nM. For the same compound, the TGI (RXF 393 renal) was 1950 nM, the GI50 (SW-620 colon) was 825 nM and the TGI (SW-620 colon) was greater than 100 µM. The GI50 (OVCAR-3 ovarian) was 3.81 µM, the TGI (OVCAR-3 ovarian) was greater than 100 µM and the GI50 (OVCAR-5 ovarian) was greater than 100 µM. It also gave a TGI (OVCAR-5 ovarian) greater than 100 µM, a GI50 (HCC-2998 colon) of 3.06 µM and a TGI (HCC-2998 colon) greater than 100 µM.
